According to ChEMBL document CHEMBL1145498, “A systematic interaction map of validated kinase inhibitors with Ser/Thr kinases” (Proc Natl Acad Sci U S A, 2007):

Tests used:
[1] = molecular target: Dual specificity protein kinase CLK2 (Homo sapiens) (UniProt P49760)
[2] = molecular target: Calcium/calmodulin-dependent protein kinase type II subunit delta (Homo sapiens) (UniProt Q13557)
[3] = molecular target: Serine/threonine-protein kinase pim-2 (Homo sapiens, UniProt Q9P1W9)
[4] = molecular target: Serine/threonine-protein kinase PAK 5 (Homo sapiens) (UniProt Q9P286)
Serine/threonine-protein kinase PAK 5 (Homo sapiens), sequence (Q9P286 whole entry, looked up): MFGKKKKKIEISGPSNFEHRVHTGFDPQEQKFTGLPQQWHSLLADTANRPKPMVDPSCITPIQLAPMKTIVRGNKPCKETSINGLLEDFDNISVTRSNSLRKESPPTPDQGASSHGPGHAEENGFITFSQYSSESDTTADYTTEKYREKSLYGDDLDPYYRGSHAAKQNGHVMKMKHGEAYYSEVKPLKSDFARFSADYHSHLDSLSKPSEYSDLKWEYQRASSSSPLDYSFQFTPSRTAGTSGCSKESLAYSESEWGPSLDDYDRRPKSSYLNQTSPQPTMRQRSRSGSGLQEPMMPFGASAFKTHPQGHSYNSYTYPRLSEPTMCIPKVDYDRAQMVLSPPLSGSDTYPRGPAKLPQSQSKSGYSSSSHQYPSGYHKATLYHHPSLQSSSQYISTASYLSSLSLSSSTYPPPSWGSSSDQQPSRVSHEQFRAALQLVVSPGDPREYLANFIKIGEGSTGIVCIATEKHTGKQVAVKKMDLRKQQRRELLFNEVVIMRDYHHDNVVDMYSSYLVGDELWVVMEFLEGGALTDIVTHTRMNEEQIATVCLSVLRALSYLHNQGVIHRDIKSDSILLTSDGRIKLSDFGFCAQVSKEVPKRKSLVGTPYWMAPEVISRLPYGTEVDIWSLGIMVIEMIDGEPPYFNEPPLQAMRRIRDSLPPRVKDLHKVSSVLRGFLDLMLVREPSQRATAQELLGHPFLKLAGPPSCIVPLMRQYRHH

[5] = molecular target: T1, Serine/threonine-protein kinase VRK1 (Homo sapiens) (UniProt Q99986)
T1 sequence (whole entry): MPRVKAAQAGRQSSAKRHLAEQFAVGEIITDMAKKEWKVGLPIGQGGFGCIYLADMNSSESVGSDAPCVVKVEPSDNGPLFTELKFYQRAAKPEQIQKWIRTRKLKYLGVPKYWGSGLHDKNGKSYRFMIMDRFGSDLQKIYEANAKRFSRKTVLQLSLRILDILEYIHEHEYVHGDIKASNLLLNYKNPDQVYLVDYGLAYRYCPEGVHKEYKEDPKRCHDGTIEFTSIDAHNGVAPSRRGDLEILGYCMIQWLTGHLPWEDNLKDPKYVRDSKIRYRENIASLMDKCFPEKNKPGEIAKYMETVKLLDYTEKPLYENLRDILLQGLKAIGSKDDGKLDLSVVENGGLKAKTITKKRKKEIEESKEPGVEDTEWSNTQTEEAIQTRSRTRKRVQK

[6] = molecular target: Casein kinase I isoform gamma-3 (Homo sapiens) (UniProt Q9Y6M4)
[7] = molecular target: Glycogen synthase kinase-3 beta (Homo sapiens, UniProt P49841)
Glycogen synthase kinase-3 beta, sequence (P49841 whole entry, looked up): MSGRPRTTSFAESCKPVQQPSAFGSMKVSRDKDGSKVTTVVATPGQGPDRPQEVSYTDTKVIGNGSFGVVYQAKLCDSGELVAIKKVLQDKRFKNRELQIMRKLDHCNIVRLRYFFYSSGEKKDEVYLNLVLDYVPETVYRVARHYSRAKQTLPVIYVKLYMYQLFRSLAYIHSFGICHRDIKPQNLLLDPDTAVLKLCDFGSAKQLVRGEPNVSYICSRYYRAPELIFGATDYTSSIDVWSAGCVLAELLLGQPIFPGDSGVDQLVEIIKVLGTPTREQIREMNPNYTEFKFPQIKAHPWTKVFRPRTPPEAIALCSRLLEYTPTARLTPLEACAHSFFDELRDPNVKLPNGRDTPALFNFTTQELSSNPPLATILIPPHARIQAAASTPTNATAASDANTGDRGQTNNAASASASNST

[8] = molecular target: Cyclin-dependent kinase 16 (Homo sapiens) (UniProt Q00536)
Cyclin-dependent kinase 16 (Homo sapiens), sequence (Q00536 whole entry): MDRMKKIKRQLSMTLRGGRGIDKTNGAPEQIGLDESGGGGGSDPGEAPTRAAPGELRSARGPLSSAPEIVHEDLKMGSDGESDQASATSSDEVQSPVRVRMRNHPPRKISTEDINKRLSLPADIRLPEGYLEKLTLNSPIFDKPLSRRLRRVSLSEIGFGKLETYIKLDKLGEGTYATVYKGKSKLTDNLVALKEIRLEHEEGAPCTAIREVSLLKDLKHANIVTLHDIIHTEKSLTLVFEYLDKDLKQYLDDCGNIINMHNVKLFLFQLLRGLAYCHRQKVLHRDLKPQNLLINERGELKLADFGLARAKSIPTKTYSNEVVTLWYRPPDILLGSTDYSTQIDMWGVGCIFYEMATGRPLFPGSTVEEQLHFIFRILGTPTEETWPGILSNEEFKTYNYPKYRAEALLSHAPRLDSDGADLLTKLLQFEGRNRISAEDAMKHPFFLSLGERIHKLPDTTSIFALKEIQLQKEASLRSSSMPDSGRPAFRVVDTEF

[9] = molecular target: Calcium/calmodulin-dependent protein kinase kinase 2 (Homo sapiens, UniProt Q96RR4)
[10] = molecular target: T2, Serine/threonine-protein kinase VRK3 (Homo sapiens) (UniProt Q8IV63)
T2 sequence (whole entry): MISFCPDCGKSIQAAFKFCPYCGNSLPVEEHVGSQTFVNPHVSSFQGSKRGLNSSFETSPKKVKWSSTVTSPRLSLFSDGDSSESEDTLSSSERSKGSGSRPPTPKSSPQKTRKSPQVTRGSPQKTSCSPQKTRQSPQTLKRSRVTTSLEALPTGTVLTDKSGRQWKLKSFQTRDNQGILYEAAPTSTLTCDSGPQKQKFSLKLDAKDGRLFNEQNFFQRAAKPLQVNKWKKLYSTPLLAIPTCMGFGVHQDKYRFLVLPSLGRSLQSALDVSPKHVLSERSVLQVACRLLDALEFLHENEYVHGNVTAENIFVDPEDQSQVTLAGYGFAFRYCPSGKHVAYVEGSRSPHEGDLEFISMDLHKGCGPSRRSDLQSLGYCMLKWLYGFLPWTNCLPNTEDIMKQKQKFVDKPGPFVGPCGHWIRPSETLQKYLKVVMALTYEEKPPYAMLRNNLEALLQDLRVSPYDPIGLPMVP

[11] = molecular target: Serine/threonine-protein kinase PAK 4 (Homo sapiens) (UniProt O96013)
Serine/threonine-protein kinase PAK 4 (Homo sapiens), sequence (O96013 whole entry, looked up): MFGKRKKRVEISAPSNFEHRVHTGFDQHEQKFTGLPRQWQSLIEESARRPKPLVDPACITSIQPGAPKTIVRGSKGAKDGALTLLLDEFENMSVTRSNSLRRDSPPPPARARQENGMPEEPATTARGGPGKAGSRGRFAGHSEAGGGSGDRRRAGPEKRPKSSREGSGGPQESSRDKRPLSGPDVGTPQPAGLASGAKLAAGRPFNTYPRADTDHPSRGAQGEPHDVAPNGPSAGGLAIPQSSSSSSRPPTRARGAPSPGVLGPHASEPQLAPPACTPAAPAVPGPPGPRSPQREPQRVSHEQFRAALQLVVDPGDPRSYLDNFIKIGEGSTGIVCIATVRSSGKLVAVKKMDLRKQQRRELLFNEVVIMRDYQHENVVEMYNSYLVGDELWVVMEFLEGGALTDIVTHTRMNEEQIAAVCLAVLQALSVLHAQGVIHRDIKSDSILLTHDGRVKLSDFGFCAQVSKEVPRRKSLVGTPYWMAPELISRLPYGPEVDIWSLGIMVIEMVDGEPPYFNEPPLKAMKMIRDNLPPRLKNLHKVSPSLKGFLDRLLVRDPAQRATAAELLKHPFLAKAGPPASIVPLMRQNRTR

[12] = molecular target: Serine/threonine-protein kinase PLK1 (Homo sapiens) (UniProt P53350)
[13] = molecular target: TRAF2 and NCK-interacting protein kinase (Homo sapiens) (UniProt Q9UKE5)
TRAF2 and NCK-interacting protein kinase (Homo sapiens), sequence (Q9UKE5 whole entry, looked up): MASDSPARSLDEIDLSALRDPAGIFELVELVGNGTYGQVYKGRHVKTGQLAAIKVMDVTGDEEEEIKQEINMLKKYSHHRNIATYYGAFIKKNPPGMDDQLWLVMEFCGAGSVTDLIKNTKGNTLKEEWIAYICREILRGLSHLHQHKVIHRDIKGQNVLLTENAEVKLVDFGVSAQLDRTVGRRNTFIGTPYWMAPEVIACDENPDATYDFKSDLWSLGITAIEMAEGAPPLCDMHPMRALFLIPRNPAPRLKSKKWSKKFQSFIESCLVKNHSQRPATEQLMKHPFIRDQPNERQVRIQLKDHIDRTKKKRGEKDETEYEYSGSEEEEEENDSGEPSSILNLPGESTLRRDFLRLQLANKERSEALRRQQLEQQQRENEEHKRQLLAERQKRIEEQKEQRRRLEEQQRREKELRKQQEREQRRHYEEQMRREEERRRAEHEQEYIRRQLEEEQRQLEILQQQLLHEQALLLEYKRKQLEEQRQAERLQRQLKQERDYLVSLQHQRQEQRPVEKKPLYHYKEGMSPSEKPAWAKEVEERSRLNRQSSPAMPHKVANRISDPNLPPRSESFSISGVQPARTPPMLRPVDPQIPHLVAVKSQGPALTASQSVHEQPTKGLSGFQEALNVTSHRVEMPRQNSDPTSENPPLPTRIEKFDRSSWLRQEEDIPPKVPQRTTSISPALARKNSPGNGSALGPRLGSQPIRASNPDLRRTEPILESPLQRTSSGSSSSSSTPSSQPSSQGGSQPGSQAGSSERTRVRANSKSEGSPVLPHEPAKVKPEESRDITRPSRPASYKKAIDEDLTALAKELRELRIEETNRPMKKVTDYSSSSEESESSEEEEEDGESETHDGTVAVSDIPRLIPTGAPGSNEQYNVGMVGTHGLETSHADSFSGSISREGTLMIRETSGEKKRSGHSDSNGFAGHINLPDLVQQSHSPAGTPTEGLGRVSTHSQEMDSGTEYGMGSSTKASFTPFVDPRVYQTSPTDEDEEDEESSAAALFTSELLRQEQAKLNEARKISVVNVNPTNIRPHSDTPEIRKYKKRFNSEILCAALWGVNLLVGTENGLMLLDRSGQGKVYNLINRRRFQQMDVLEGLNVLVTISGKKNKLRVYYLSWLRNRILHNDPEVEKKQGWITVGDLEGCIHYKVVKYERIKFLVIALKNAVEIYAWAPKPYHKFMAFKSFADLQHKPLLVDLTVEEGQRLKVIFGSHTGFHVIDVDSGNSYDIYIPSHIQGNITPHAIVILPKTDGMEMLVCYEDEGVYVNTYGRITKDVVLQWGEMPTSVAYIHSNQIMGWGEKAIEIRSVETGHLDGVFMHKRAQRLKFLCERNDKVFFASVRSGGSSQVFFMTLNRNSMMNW

[14] = molecular target: cAMP-dependent protein kinase catalytic subunit alpha (Homo sapiens) (UniProt P17612)
[15] = molecular target: T3, Myotonin-protein kinase (Homo sapiens) (UniProt Q09013)
T3 sequence (whole entry): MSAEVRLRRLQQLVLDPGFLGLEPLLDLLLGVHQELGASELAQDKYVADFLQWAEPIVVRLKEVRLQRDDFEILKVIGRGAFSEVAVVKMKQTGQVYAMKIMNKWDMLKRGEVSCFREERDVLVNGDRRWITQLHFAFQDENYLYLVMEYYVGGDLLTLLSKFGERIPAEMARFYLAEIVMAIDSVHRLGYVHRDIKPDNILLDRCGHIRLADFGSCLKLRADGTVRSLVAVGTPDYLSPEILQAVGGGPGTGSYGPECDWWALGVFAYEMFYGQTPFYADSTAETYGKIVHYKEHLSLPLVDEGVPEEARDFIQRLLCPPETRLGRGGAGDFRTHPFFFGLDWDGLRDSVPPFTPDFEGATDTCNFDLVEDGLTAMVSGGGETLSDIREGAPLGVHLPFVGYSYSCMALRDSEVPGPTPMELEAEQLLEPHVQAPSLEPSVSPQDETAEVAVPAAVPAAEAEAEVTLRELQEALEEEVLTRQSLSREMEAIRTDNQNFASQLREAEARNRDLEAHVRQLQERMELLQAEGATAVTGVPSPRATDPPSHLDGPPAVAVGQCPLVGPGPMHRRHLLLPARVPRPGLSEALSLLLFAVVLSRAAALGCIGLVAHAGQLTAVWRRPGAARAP

[16] = molecular target: Mitogen-activated protein kinase 11 (Homo sapiens, UniProt Q15759)
[17] = molecular target: Serine/threonine-protein kinase VRK2 (Homo sapiens) (UniProt Q86Y07)
Serine/threonine-protein kinase VRK2 (Homo sapiens), sequence (Q86Y07 whole entry): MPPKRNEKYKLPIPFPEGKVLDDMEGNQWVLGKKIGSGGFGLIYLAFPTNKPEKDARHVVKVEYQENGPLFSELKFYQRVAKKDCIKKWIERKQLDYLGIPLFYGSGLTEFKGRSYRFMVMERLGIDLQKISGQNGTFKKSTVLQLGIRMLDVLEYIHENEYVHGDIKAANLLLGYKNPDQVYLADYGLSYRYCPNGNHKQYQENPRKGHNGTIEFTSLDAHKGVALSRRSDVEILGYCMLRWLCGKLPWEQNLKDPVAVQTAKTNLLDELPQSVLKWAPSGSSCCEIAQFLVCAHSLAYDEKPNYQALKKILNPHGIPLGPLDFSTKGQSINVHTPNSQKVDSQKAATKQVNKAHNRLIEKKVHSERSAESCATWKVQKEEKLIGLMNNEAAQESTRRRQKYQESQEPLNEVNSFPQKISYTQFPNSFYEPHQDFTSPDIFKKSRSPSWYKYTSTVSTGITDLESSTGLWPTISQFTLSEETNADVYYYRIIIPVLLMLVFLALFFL

[18] = molecular target: T4, Serine/threonine-protein kinase 4 (Homo sapiens) (UniProt Q13043)
T4 sequence (whole entry): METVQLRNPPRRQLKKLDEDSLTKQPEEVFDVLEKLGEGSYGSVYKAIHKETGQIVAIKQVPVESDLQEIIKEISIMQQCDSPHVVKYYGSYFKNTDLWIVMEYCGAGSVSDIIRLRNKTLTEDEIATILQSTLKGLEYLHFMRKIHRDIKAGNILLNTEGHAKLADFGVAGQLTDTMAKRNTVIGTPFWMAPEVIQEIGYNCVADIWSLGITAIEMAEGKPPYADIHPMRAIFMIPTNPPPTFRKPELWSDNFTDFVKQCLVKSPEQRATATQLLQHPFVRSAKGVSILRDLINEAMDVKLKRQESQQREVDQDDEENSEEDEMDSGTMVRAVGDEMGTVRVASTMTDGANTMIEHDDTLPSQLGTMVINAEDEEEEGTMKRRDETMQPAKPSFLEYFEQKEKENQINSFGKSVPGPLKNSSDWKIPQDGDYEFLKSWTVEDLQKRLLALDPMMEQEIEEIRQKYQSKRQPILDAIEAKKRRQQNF

Serine/threonine-protein kinase pim-2, sequence (Q9P1W9 whole entry, looked up): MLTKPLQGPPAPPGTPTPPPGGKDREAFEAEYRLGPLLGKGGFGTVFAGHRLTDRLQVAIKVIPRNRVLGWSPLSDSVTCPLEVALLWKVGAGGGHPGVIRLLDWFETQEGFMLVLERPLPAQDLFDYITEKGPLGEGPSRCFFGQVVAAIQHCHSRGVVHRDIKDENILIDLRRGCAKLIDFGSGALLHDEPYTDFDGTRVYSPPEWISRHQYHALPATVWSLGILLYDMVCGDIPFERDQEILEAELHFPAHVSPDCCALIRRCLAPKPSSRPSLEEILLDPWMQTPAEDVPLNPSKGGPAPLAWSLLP
Calcium/calmodulin-dependent protein kinase type II subunit delta (Homo sapiens), sequence (Q13557 whole entry): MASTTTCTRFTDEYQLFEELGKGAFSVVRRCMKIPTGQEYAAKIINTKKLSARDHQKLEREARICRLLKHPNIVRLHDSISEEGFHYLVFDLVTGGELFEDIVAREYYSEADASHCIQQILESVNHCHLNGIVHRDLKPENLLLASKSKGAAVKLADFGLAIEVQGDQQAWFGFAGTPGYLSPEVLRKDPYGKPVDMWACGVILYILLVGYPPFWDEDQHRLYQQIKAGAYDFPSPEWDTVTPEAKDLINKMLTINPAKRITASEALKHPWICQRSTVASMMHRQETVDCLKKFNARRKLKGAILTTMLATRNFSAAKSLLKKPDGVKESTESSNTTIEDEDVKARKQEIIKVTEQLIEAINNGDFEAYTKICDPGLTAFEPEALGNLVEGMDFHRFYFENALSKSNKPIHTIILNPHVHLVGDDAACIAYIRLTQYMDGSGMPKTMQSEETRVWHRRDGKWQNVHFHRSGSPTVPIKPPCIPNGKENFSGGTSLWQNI

Work on `CC(C)(C)n1nc(-c2ccc(Cl)cc2)c2c(N)ncnc21` yielded a ΔTm [1] of 1.4 °C, a ΔTm [2] of -0.1 °C and a ΔTm [3] of 0.2 °C. The ΔTm [4] was 0.7 °C, the ΔTm [5] was 0 °C and the ΔTm [6] was 0.6 °C. The ΔTm [7] was 0.5 °C, the ΔTm [8] was -0.5 °C and the ΔTm [9] was 1 °C. The ΔTm [10] was -0.2 °C, the ΔTm [11] was 1 °C and the ΔTm [12] was 0.9 °C. The ΔTm [13] was 1.4 °C, the ΔTm [14] was 2.3 °C and the ΔTm [15] was 0.6 °C. The ΔTm [16] was 4.6 °C, the ΔTm [17] was 0.3 °C and the ΔTm [18] was 2.1 °C.

With `C/C(O)=C(\C#N)C(=O)Nc1cc(Br)ccc1Br` the ΔTm [1] was 0.5 °C, the ΔTm [2] was 0.5 °C and the ΔTm [3] was 1.9 °C. The ΔTm [4] was 0.4 °C, the ΔTm [5] was 0 °C and the ΔTm [6] was 0.3 °C. The ΔTm [7] was 1.8 °C, the ΔTm [8] was -1.1 °C and the ΔTm [9] was -0.1 °C. It also gave a ΔTm [10] of -0.3 °C, a ΔTm [11] of -0.3 °C and a ΔTm [12] of 1.3 °C. The ΔTm [13] was -0.1 °C, the ΔTm [14] was 1.4 °C and the ΔTm [15] was 0 °C. For the same compound, the ΔTm [16] was 0.3 °C, the ΔTm [17] was 0.1 °C and the ΔTm [18] was 0.2 °C.

`COc1cccc(-c2cc(=O)c3ccccc3o2)c1N` was tested, and the ΔTm [1] was 0 °C, the ΔTm [2] was 0.3 °C and the ΔTm [3] was 0.2 °C. For the same compound, the ΔTm [4] was -0.2 °C, the ΔTm [5] was 0.2 °C and the ΔTm [6] was 0.1 °C. For the same compound, the ΔTm [7] was 0.1 °C, the ΔTm [8] was -0.2 °C and the ΔTm [9] was -0.4 °C. It also gave a ΔTm [10] of 0.6 °C, a ΔTm [11] of 0.5 °C and a ΔTm [12] of 0.3 °C. The ΔTm [13] was -0.1 °C, the ΔTm [14] was 0.3 °C and the ΔTm [15] was -0.2 °C. For the same compound, the ΔTm [16] was 0.2 °C, the ΔTm [17] was 0.2 °C and the ΔTm [18] was -0.1 °C.

For `O=C1Cc2c([nH]c3ccc(Br)cc23)-c2ccccc2N1` [KENPAULLONE], the ΔTm [1] was 0.1 °C, the ΔTm [2] was 0.2 °C and the ΔTm [3] was 1.2 °C. It also gave a ΔTm [4] of 3.5 °C, a ΔTm [5] of -0.1 °C and a ΔTm [6] of 0.4 °C. For the same compound, the ΔTm [7] was 10.5 °C, the ΔTm [8] was 2 °C and the ΔTm [9] was 2 °C. For the same compound, the ΔTm [10] was -0.2 °C, the ΔTm [11] was 3.4 °C and the ΔTm [12] was 0.1 °C. For the same compound, the ΔTm [13] was 6.7 °C, the ΔTm [14] was 1 °C and the ΔTm [15] was 5.8 °C. The ΔTm [16] was 0.2 °C, the ΔTm [17] was 0.2 °C and the ΔTm [18] was 4.9 °C.

Work on `CCOc1cc2ncnc(Nc3cccc(Br)c3)c2cc1OCC` yielded a ΔTm [1] of 1 °C, a ΔTm [2] of 0.6 °C and a ΔTm [3] of 1.1 °C. For the same compound, the ΔTm [4] was 0.4 °C, the ΔTm [5] was 0 °C and the ΔTm [6] was -0.2 °C. The ΔTm [7] was 2.8 °C, the ΔTm [8] was -1 °C and the ΔTm [9] was 2.7 °C. The ΔTm [10] was 0.1 °C, the ΔTm [11] was 0.4 °C and the ΔTm [12] was 0.2 °C. It also gave a ΔTm [13] of 3.1 °C, a ΔTm [14] of 0.8 °C and a ΔTm [15] of 0.5 °C. It also gave a ΔTm [16] of 2.2 °C, a ΔTm [17] of 0.6 °C and a ΔTm [18] of 2.2 °C.
